Measured values from the SangsterLogP compilation.

Assay: not given
Details: pH 3.5

For COc1cccc(NC(=S)c2ccc(O)cc2O)c1, the logD was 3.54.

Assay: method code SF-AS, from DOI: 10.1002/qsar.200430865
Details: pH 3.5

Compared with Oc1ccc(C(=S)Nc2ccc(Cl)cc2Cl)c(O)c1, Oc1ccc(C(=S)Nc2cc(Cl)ccc2O)c(O)c1 is lower in logD: 4.26 for the first, 3.58 for the second.

Going from Oc1ccc(C(=S)Nc2ccccc2F)c(O)c1 to CCOc1ccccc1NC(=S)c1ccc(O)cc1O, the logD rises from 3.36 to 3.8.

Oc1ccc(C(=S)Nc2cccc(Cl)c2Cl)c(O)c1 and Oc1ccc(C(=S)Nc2cccc(Cl)c2)c(O)c1 are within 0.2 log units of each other in logD: 4.02 for the first, 3.9 for the second.

Going from Oc1ccc(C(=S)Nc2cc(Cl)c(Cl)cc2Cl)c(O)c1 to Oc1ccc(C(=S)Nc2ccc(Cl)c(F)c2)c(O)c1, the logD falls from 4.92 to 4.43.

First: CCOc1ccc(NC(=S)c2ccc(O)cc2O)cc1
Second: Oc1ccc(C(=S)Nc2ccc(Br)cc2)c(O)c1
The logD of the first is lower: 3.49 for the first, 4.02 for the second.

First: CC(=O)c1cccc(NC(=S)c2ccc(O)cc2O)c1
Second: Oc1ccc(C(=S)Nc2cccc(Br)c2)c(O)c1
The logD of the first is lower: 2.36 for the first, 3.46 for the second.

Oc1ccc(C(=S)Nc2ccc(F)cc2F)c(O)c1 and Oc1ccc(C(=S)Nc2cccc(F)c2)c(O)c1 are within 0.2 log units of each other in logD: 3.54 for the first, 3.41 for the second.

Compared with COC(=O)c1ccccc1NC(=S)c1ccc(O)cc1O, N#Cc1ccc(NC(=S)c2ccc(O)cc2O)cc1 is lower in logD: 2.92 for the first, 2.41 for the second.

Work on Oc1ccc(C(=S)Nc2cccc(C(F)(F)F)c2)c(O)c1 yielded a logD of 4.26.
